Reference: patent US20210254056A1, “IDENTIFICATION AND TARGETED MODULATION OF GENE SIGNALING NETWORKS” (CAMP4 THERAPEUTICS CORPORATION, priority 2017, published 2021)

Test system: hepatocytes
Assay: RNA-seq of hepatocytes treated with Phase III failure compounds
Details: hepatocytes
Method: RNA-seq was performed to determine the effects of the compounds on hepatocytes.
Significance was determined by the criteria of FPKM≥0.5, a log 2(fold-change)≥1, and a […].

Which results are given for `CCC(CC)[C@H](NC(C)=O)[C@@H]1[C@H](O)[C@@H](C(=O)O)C[C@H]1NC(=N)N.O.O.O` [peramivir (trihydrate), peramivir]?
RNA-seq results: DOLK expression (gene DOLK): 0.33; RNA-seq results, DPM3 expression (gene DPM3): −0.11; RNA-seq results: DPM3 expression (gene DPM3): 0.68; RNA-seq results, DPYD expression (gene DPYD): −0.21; RNA-seq results: DPYD expression (gene DPYD): −0.43; RNA-seq results, DPYS expression (gene DPYS): −0.01; RNA-seq results: DPYS expression (gene DPYS): −0.27; RNA-seq results, EARS2 expression (gene EARS2): 0.04; RNA-seq results: EARS2 expression (gene EARS2): −0.01; RNA-seq results, EDA expression (gene EDA): −0.03; RNA-seq results: EDA expression (gene EDA): 0.3; RNA-seq results, EHHADH expression (gene EHHADH): −0.10; RNA-seq results: EHHADH expression (gene EHHADH): −0.3; RNA-seq results, ELAC2 expression (gene ELAC2): −0.15; RNA-seq results: ELAC2 expression (gene ELAC2): −0.13; RNA-seq results, ENO3 expression (gene ENO3): 0.30; RNA-seq results: ENO3 expression (gene ENO3): −0.12; RNA-seq results, ENPP1 expression (gene ENPP1): −0.28; RNA-seq results: ENPP1 expression (gene ENPP1): −0.21; RNA-seq results, EPG5 expression (gene EPG5): 0.13; RNA-seq results: EPG5 expression (gene EPG5): 0; RNA-seq results, EPHX1 expression (gene EPHX1): −0.26; RNA-seq results: EPHX1 expression (gene EPHX1): 0.16; RNA-seq results, ERCC4 expression (gene ERCC4): −0.23; RNA-seq results: ERCC4 expression (gene ERCC4): −0.18; RNA-seq results, ERCC6 expression (gene ERCC6): 0.05; RNA-seq results: ERCC6 expression (gene ERCC6): −0.09; RNA-seq results, ETFB expression (gene ETFB): 0.23; RNA-seq results: ETFB expression (gene ETFB): 0.14; RNA-seq results, ETHE1 expression (gene ETHE1): 0.31; RNA-seq results: ETHE1 expression (gene ETHE1): 0.31; RNA-seq results, F2 expression (gene F2): 0.11; RNA-seq results: F2 expression (gene F2): 0.31; RNA-seq results, F2RL1 expression (gene F2RL1): −0.53; RNA-seq results: F2RL1 expression (gene F2RL1): 0.01; RNA-seq results, F5 expression (gene F5): −0.08; RNA-seq results: F5 expression (gene F5): −0.44; RNA-seq results, F9 expression (gene F9): −0.53; RNA-seq results: F9 expression (gene F9): −0.17; RNA-seq results, FABP1 expression (gene FABP1): 0.73; RNA-seq results: FABP1 expression (gene FABP1): −0.05; RNA-seq results, FADD expression (gene FADD): −0.14; RNA-seq results: FADD expression (gene FADD): 0.13; RNA-seq results, FAM111A expression (gene FAM111A): −0.08; RNA-seq results: FAM111A expression (gene FAM111A): −0.05; RNA-seq results, FAM111B expression (gene FAM111B): 0.11; RNA-seq results: FAM111B expression (gene FAM111B): −0.44; RNA-seq results, FAN1 expression (gene FAN1): −0.06; RNA-seq results: FAN1 expression (gene FAN1): −0.14; RNA-seq results, FARS2 expression (gene FARS2): −0.22; RNA-seq results: FARS2 expression (gene FARS2): −0.04; RNA-seq results, FASLG expression (gene FASLG): 1.15; RNA-seq results: FASLG expression (gene FASLG): −0.66; RNA-seq results, FGA expression (gene FGA): −0.25; RNA-seq results: FGA expression (gene FGA): −0.37; RNA-seq results, FGD1 expression (gene FGD1): −0.25; RNA-seq results: FGD1 expression (gene FGD1): 0.14; RNA-seq results, FGFR2 expression (gene FGFR2): −0.13; RNA-seq results: FGFR2 expression (gene FGFR2): −0.42; RNA-seq results, FIG4 expression (gene FIG4): −0.30; RNA-seq results: FIG4 expression (gene FIG4): 0.3; RNA-seq results, FIS1 expression (gene FIS1): 0.44; RNA-seq results: FIS1 expression (gene FIS1): 0.25; RNA-seq results, FTCD expression (gene FTCD): 0.58; RNA-seq results: FTCD expression (gene FTCD): 0.43; RNA-seq results, FTH1 expression (gene FTH1): −0.04; RNA-seq results: FTH1 expression (gene FTH1): 0.7; RNA-seq results, FUCA1 expression (gene FUCA1): −0.23; RNA-seq results: FUCA1 expression (gene FUCA1): 0.07; RNA-seq results, FXN expression (gene FXN): −0.69; RNA-seq results: FXN expression (gene FXN): 0.12; RNA-seq results, G6PC3 expression (gene G6PC3): 0.06; RNA-seq results: G6PC3 expression (gene G6PC3): 0.29; RNA-seq results, G6PC expression (gene G6PC): 0.23; RNA-seq results: G6PC expression (gene G6PC): 0.01; RNA-seq results, G6PD expression (gene G6PD): 0.08; RNA-seq results: G6PD expression (gene G6PD): 0.59; RNA-seq results, GALK1 expression (gene GALK1): 0.18; RNA-seq results: GALK1 expression (gene GALK1): 0.34; RNA-seq results, GALK2 expression (gene GALK2): −0.13; RNA-seq results: GALK2 expression (gene GALK2): −0.11; RNA-seq results, GALT expression (gene GALT): 0.15; RNA-seq results: GALT expression (gene GALT): 0.26; RNA-seq results, GATA6 expression (gene GATA6): −0.08; RNA-seq results: GATA6 expression (gene GATA6): −0.02; RNA-seq results, GATM expression (gene GATM): −0.37; RNA-seq results: GATM expression (gene GATM): −0.37; RNA-seq results, GBA expression (gene GBA): −0.19; RNA-seq results: GBA expression (gene GBA): 0.27; RNA-seq results, GBE1 expression (gene GBE1): −0.20; RNA-seq results: GBE1 expression (gene GBE1): −0.08; RNA-seq results, GCH1 expression (gene GCH1): −0.27; RNA-seq results: GCH1 expression (gene GCH1): −0.25; RNA-seq results, GCKR expression (gene GCKR): 0.29; RNA-seq results: GCKR expression (gene GCKR): 0.32; RNA-seq results, GCLC expression (gene GCLC): −0.18; RNA-seq results: GCLC expression (gene GCLC): −0.14; RNA-seq results, GGCX expression (gene GGCX): 0.10; RNA-seq results: GGCX expression (gene GGCX): −0.22; RNA-seq results, GHR expression (gene GHR): −0.27; RNA-seq results: GHR expression (gene GHR): −0.6; RNA-seq results, GJB2 expression (gene GJB2): −0.37; RNA-seq results: GJB2 expression (gene GJB2): 0.1; RNA-seq results, GLDC expression (gene GLDC): 0.02; RNA-seq results: GLDC expression (gene GLDC): −0.33; RNA-seq results, GLIS3 expression (gene GLIS3): −0.13; RNA-seq results: GLIS3 expression (gene GLIS3): −0.41; RNA-seq results, GLS2 expression (gene GLS2): −0.24; RNA-seq results: GLS2 expression (gene GLS2): −0.06; RNA-seq results, GLYCTK expression (gene GLYCTK): 0.32; RNA-seq results: GLYCTK expression (gene GLYCTK): 0.43; RNA-seq results, GNE expression (gene GNE): −0.21; RNA-seq results: GNE expression (gene GNE): −0.11; RNA-seq results, GNPTAB expression (gene GNPTAB): −0.49; RNA-seq results: GNPTAB expression (gene GNPTAB): −0.13; RNA-seq results, GOSH expression (gene GOSH): −0.17; RNA-seq results: GOSH expression (gene GOSH): 0.44; RNA-seq results, GPC3 expression (gene GPC3): −0.45; RNA-seq results: GPC3 expression (gene GPC3): 0.06
